# Values of other authors as cited in patent publication US6476071B1, “Correcting polymorphic metabolic dysfunction with (−)-hydroxycitric acid” (priority 2001, dated 2002).
# Key:
# [1] = tested on: rats; details: after a three hour meal
# [2] = tested on: animals; details: 70% glucose diet, as long as 80 days
smiles,measurement,setting,value
O=C([O-])CC(O)(C(=O)[O-])C(O)C(=O)[O-].[Na+].[Na+].[Na+] (stereo not drawn) [trisodium salt of (−)-hydroxycitric acid],"contents of the stomach, % of control",[1],223 % of control
same,contents of the stomach,[1]; controls 884±145,1973±154 dpm×10^3
same,body weight after disappearance of appetite control,[2],maintained a reduced weight
